How the values were obtained:
[1] = system: Primary AML cells with IDH mutations; experiment: JQ1 sensitivity of primary AML cells; type: cell-based, human; conditions: "often"
[2] = system: R-2HG-resistant leukemic cells; experiment: JQ1 with R-2HG in resistant leukemic cells, cell viability; type: cell-based, human; conditions: inhibition of MYC signaling by JQ1
Protocol: Cell proliferation/viability, cell cycle and cell apoptosis assays. To study the effects of R-2HG, FTO, or IDH1^R132H on viability, the cells were seeded into 96-well plates at the concentration of 5,000-10,000 cells/well in triplicates and MTT (G4000, Promega) was used to assess cell proliferation and viability following the manufacturer's instructions. For cell cycle analysis, Propidium iodide (PI) DNA staining was used to assess the cells at G0/G1, S and G2/M phases, while Hoechst 33342 and Pyronin Y were used to determine the cells at G0, G1 and S/G2/M stages. For the PI staining, cells were resuspended in Krishan's reagent (0.05 mg/ml PI, 0.1% trisodium citrate, 0.02 mg/ml ribonuclease A, 0.3% NP-40), incubated at 37° C. for 30 minutes and then applied to the flow cytometer.; For Hoechst/Pyronin Y staining, the cells were suspended in cell culture medium, incubated at 37° C. for 45 minutes with existence of 10 ug/mL Hoechst 33342 and further incubated at 37° C. for 15 minutes with existence of Pyronin Y before flow cytometry. Cell apoptosis assay was conducted with FITC Annexin V Apoptosis Detection Kit I (BD Pharmingen) according to the manufacturer's instructions.

Cc1sc2c(c1C)C(c1ccc(Cl)cc1)=N[C@@H](CC(=O)OC(C)(C)C)c1nnc(C)n1-2 [JQ1]
IC50 [1]: < 1000 nM
sensitivity of R-2HG-resistant leukemic cells to exogenous R-2HG or IDH1^R132H [2]: notably increased sensitivity
